Reference: patent US5952189A (priority 1997, dated 1999)
Where “and” joins values, the source holds several entries; their conditions need not be identical. Equal entries are not always repeated. Entries after “also recorded” stand apart in the source; their conditions may differ. Where two headings read alike, the source gives them in different places.

Assays:
[1] = test system: chymotrypsin-like enzymes; details: cited from earlier work
[2] = test system: SEB-induced hepatotoxicity; format: in vivo, mice; details: Gln + SEB + DK120 5 mg/kg
[3] = test system: anti-Fas-induced hepatocyte apoptosis; experiment: Anti-Fas induced hepatotoxicity in mice (serum transaminases); format: in vivo
Procedure: It has been previously shown that injection of mice with antibodies directed against the Fas antigen causes hepatocyte apoptosis and death due to liver failure (Ogasawara et al. (1993) Nature 364:806-809). Therefore, the effects of administration of DK120 to mice injected with antibodies directed against the murine Fas antigen were tested.
(§1) ^1 Mice (2 for each treatment) were injected ip +/- DK120 30 min prio
to antiFas antibodies. Twelve h later serum transaminase levels were […]

BT-20 = format: cell-based, human; details: for % DNA fragmentation: BT-20, UV 0.5 J/cm^2, 8 h, no inhibitor 44 ± 3.6
[4] = test system: LPS-induced hepatotoxicity
isolated U937 nuclei = experiment: DNA fragmentation assay using isolated U937 nuclei; format: cell-based, human; details: inhibitor 50 μM (FIG. 6B)
Procedure: U937 cells were labeled with ^3 H-thymidine by culturing overnight with isotope at 0.5 μCi/ml. The cells were pelleted, washed once, and the cytoplasmic membrane lysed by resuspending the cells in assay buffer (50 mM Tris, 250 mM sucrose 10 mM MgSO4, pH 7.5) plus 0.02% NP-40. Nuclei were then pelleted and resuspended in assay buffer at 1×10^6 /ml. The assay was set up in triplicate in flat bottom microtiter plates under sterile conditions. Nuclei (0.05 ml) were mixed with 0.05 ml of sample diluted in 50 mM Tris pH 7.5 or buffer alone to determine total counts. Plates were incubated for 5 h at 37° C. and then harvested by the addition of 0.1 ml of harvesting buffer (10 mM Tris, 10 mM EDTA, 0.3% Triton X-100, pH 7.5). Plates were harvested by filtration onto glass fiber paper and counted on a Packard Matrix 96 beta counter. Percent DNA fragmentation was calculated as follows: […]

U937 cells = experiment: cells; format: cell-based, human
[5] = test system: TNF-induced hepatocyte apoptosis; experiment: TNF-induced hepatotoxicity in mice (serum transaminases); format: in vivo, Balb/c mice; details: for AST: without DK120 78
Procedure: In this example the concept that a protease inhibitor such as DK120 may attenuate inappropriate apoptosis that causes tissue damage in systemic inflammatory response syndrome (SIRS) was tested. TNF-induced hepatocyte apoptosis in mice was performed as described by Leist et al. ((1995) J. Immunol. 154:1778-1786). Briefly, Balb/c mice were injected ip with […] murine TNF combined with […] Actinomycin D/mouse. Twelve h later, mice were anesthetized and bled from the heart to measure serum transaminase levels, which are standard clinically used indicators of liver damage. Mice that were treated with protease inhibitors were injected ip with these compounds 30 min. prior to TNF. Alanine aminotransferase (ALT) and aspartate aminotransferase (AST) were assayed using a commercially available kit (Sigma). […] However, treatment with DK120 caused a doss-dependent decrease in serum transaminase levels. […] However, a drug that nonspecifically blocks all apoptotic pathways that normally function to maintain homeostasis may not be clinically desirable. Subsequent studies were performed to determine if DK120 could also suppress hepatocyte apoptosis in response to a different stimulus.
as §1
to TNF and Actinomycin D. Twelve h later serum transaminase levels were
To further explore the specificity of DK120 attenuation of TNF-induced hepatotoxicity, several compounds were tested that were found previously not to inhibit apoptotic protease proteolytic activity as measured against a synthetic substrate (data not shown). […] Therefore, the protection mediated by DK120 is not a property of any boron-containing molecule.
^1 Mice (3 for each treatment) were injected ip +/- the inhibitors 30
min prior to TNF and Actinomycin D. Twelve h later serum transaminase

3T3 = experiment: Inhibition of UV-induced DNA fragmentation in 3T3 cells; format: cell-based, murine; details: UV 0.5 J/cm^2, 8 h, no inhibitor 38 ± 1.9
Procedure: To determine if these findings were unique to U937 or if other cell lines also require protease activity to undergo apoptosis, the effects of several inhibitors on apoptosis induced by UV light in the human mammary carcinoma, BT-20, the murine fibroblast cell line, 3T3, and the human myeloid leukemia, HL-60 were tested. For the BT-20 and 3T3 cells, target cells were pretreated for one hour (with or without inhibitors as indicated in the table) and exposed to UV light at 0.5 J/cm^2 and then incubated for eight hours prior to assessing DNA fragmentation. HL-60 cells were pretreated for one hour (with or without inhibitors as indicated in the table) and exposed to UV at 0.2 J/cm^2 and then incubated for two hours prior to assessing DNA fragmentation.
DNA fragmentation assays were carried out according to the protocol of Wright S. C., et al. (1,992) J. Cell. Biochem. 48, 344-355. Target cells were labeled with ^3 H-thymidine and plated in triplicate in flat bottom microtiter plates. Cells were incubated for the indicated length of time for each experiment in the presence of TNF or various inhibitors. In some experiments, cells were treated with UV light at 245 nm using a UV Crosslinker (Fisher Scientific). Assays were harvested and counted on a Packard matrix 96 beta counter. Percent DNA fragmentation was calculated as for the nuclear assay described in Example 3. In assays to test the effects of various inhibitors, the pH of extra wells containing assay buffer, target cells, and each inhibitor was always checked at the beginning and end of each assay to assure that the pH remained at 7.5.

For `C[C@H](NC(=O)OCc1ccccc1)C(=O)N[C@@H](C)C(=O)NC(Cc1ccccc1)B(O)O` (some centres unmarked) [DK120, carbobenzoxy-ala-ala-borophe], the “Inhibition of chymotrypsin / chymotrypsin-like enzymes” value [1] is given as “reversible inhibitor of chymotrypsin; also recorded: potently inhibits chymotrypsin-like enzymes”, the “% Mortality” value ([2]; without DK120 33) is given as 0% and the AST ([2]; without DK120 119) is given as 72 +/- 13 U/ml. The ALT ([2]; without DK120 339) was 205 +/- 28 U/ml, the AST ([3]; DK120 5 mg/kg ip 30 min prior to anti-Fas, 12 h, without DK120 81) was 121 U/ml and the ALT ([3]; DK120 5 mg/kg ip 30 min prior to anti-Fas, 12 h, without DK120 513) was 746 U/ml. The “Effect on anti-Fas induced elevation of serum transaminases” value ([3]; mouse, in vivo) was “did not counteract the elevation of serum transaminases induced by anti-Fas antibodies”, the “% DNA fragmentation” value (BT-20; inhibitor 0.2 μM) was 5 ± 8.7% and the “% DNA fragmentation” value (BT-20; inhibitor 1 μM) was 0%. The “% DNA fragmentation” value (BT-20; inhibitor 5 μM) was 0%, the “Effect on UV-induced DNA fragmentation” value (BT-20; summary of Table 2 (BT-20, 3T3, HL-60)) was “effectively blocked DNA fragmentation” and the “% Mortality” value ([4]; Gln + LPS + DK120 5 mg/kg, without DK120 33) was 0%. The AST ([4]; Gln + LPS + DK120 5 mg/kg, without DK120 100) was 79 +/- 10 U/ml, the ALT ([4]; Gln + LPS + DK120 5 mg/kg, without DK120 334) was 182 +/- 17 U/ml and the “Effect on serum transaminase levels after LPS or SEB” value ([4]; LPS or SEB plus Gln, DK120 30 min prior) was “significant reduction in the serum transaminase levels”. The “Effect on LPS-induced mortality, long term survival (FIG. 9)” value ([4]; mouse, in vivo) was “could delay or prevent LPS-induced mortality”, the “Inhibition of nuclear DNA fragmenting activity of protease from UV-treated cells” value (isolated U937 nuclei) was “inhibited” and the IC50 (U937 cells; Homo sapiens, U-937, read-out: IC50 (Active Concentration), TNF and UV-light induced apoptosis) was 1200 nM. For the same compound, the “Concentration of maximum suppression of DNA fragmentation” value (U937 cells; U937, TNF 1.0 ng/ml plus cycloheximide or UV 0.1 J/cm^2, 1 h pretreatment (FIG. 1)) was 2.0 µM, the “Effect on DNA fragmentation induced by TNF or UV light” value (U937 cells; U937 cells, result in words) was “suppressed DNA fragmentation; also recorded: dose-dependently inhibit DNA fragmentation” and the AST ([5]; Table 7, DK120 1 mg/kg ip 30 min prior to Actinomycin D + TNF, 12 h) was 64 U/ml. The ALT ([5]; Table 7, DK120 1 mg/kg ip 30 min prior to Actinomycin D + TNF, 12 h, without DK120 398) was 232 U/ml, the AST ([5]; Table 7, DK120 2.5 mg/kg ip 30 min prior to Actinomycin D + TNF, 12 h) was 47 U/ml and the ALT ([5]; Table 7, DK120 2.5 mg/kg ip 30 min prior to Actinomycin D + TNF, 12 h, without DK120 398) was 145 U/ml. It also gave an ALT ([5]; Table 7, DK120 5 mg/kg ip 30 min prior to Actinomycin D + TNF, 12 h, without DK120 398) of 123 U/ml, an AST ([5]; Table 7, DK120 10 mg/kg ip 30 min prior to Actinomycin D + TNF, 12 h) of 56 U/ml and an ALT ([5]; Table 7, DK120 10 mg/kg ip 30 min prior to Actinomycin D + TNF, 12 h, without DK120 398) of 50 U/ml. The “Protection from TNF-induced hepatotoxicity” value ([5]; Table 10, 10 mg/kg) was “reduced levels of ALT to close to that of Actinomycin D alone”, the “Effect on TNF-induced serum transaminase levels” value ([5]; ip 30 min prior to TNF) was “reduced transaminase to levels very close to those seen in mice injected with Actinomycin D only” and the ALT ([5]; mouse, in vivo) was 190 +/- 21 U/ml and 141 +/- 20 U/ml. For the same compound, the “% DNA fragmentation” value (3T3; inhibitor 1 μM) was 24 ± 0.3% and the “% DNA fragmentation” value (3T3; inhibitor 5 μM) was 19 ± 1.9%.
